Measured values taken from patent US20240417727A1, “ANTAGONIST OF THE MIRNA-106B-5P TO TREAT OR PREVENT THE CARDIOTOXICITY THAT IS DEVELOPED IN ONCOLOGIC PATIENTS AFTER RECEIVING ANTHRACYCLINE-BASED CHEMOTHERAPY” (UNIVERSIDAD DE MURCIA, priority 2021, published 2024).

Legend:
miR-106b = miR-106b levels by quantitative RT-PCR in hiPsCMs exposed to Dox; format: cell-based, human; settings: 5 μM Dox
Experimental: Human induced pluripotent stem cells (hiPCs) were obtained from Phenocell®, (Catalog No. PCi_CAU) and cultured according to manufacturer's instructions. Briefly, hiPCs on a suitable matrix to allow attachment of cell aggregates (Matrigel®), were grown to 80% confluence using mTeSR™ plus medium. At passage 20, we started reprogramming procedure using a standardize protocol in our laboratory. Thus, culture medium was removed and changed to RPMI-1640 with B27 minus insulin supplement (basal differentiation supplement) with 4 μM CHIR99021 (day 0). On day 3, medium was changed to basal differentiation supplement and 3 μM IWR-1. On day 5, medium was refreshed with basal differentiation supplement. Medium was changed on day 8 to RPMI 1640 with B27 supplement (cited above as RMPI/B27). On day 11, medium was changed to RPMI 1640 without glucose with B27 minus insulin. On day 14, medium was changed to RPMI/B27; procedure that was repeated every 72 h. Beating clusters were observed after 7-14 days. A standardizing gene expression profiling (RT-qPCR) both hiPs as well as hiPsCMs were carried in each human isolated clone, before starting assays. […] The cardiotoxic treatment was carried out by exposing the cell culture to 5 μM doxorubicin for different time period; unless otherwise mentioned. All the in vitro assays were performed as three biological replicates, with technical replicates each time.
Mature miR-106b expression levels were assessed by quantitative RT-PCR using the miRCURY LNA UniRT PCR primer for miR813 106b-5p (Qiagen) and Power SYBR5Green PCR Master Mix (Thermo Fisher Scientific). U6 (Qiagen) was used as internal control to normalize miR-106b expression.

sST2 = sST2 expression levels in hiPsCMs; format: cell-based, human; settings: Dox 15 h
Experimental: RNA isolation and quantitative RT-PCR.
(§1) Protein extracts (10 μg) obtained were denatured, separated by SDS-PAGE electrophoresis (Bio-Rad), transferred onto PVDF membrane (Millipore) and probed with antibodies to GADPH (MERCK, 8795,1:5000), TBP (CELL SIGNALING, 8515, 1:1000), PR55α (CELL SIGNALING, 5689, 1:1000), phospho-HDAC4 (ABCAM, ab39408, 1:2000), HDAC4 (CELL SIGNALING, 5392, 1:1000), YY1 (CELL SIGNALING, 2185,1:1000) and sST2 (PROTEINTECH, 11,920-1-AP, 1:1000). Membranes were developed using HRP conjugated secondary antibodies and Pierce ECL western blotting substrate (Thermo Fisher Scientific). Signals were detected by chemiluminescence and quantified using ImageJ 1.44p pixel analysis (US National Institutes of Health).

HDAC4-YY1 interaction = assay: Reciprocal co-immunoprecipitation of HDAC4 and YY1 in nuclear fraction of hiPsCMs; format: cell-based, human; settings: nuclear fraction from hiPsCMs
Experimental: Briefly, fresh LV (˜30 mg) tissue or harvested untreated or treated cells (˜3×10^6 cells) were washed using cold DPBS along with 100-fold diluted protease and phosphatase inhibitors. Human cardiomyocytes were pelleted by centrifugation at 480×g for 10 min at 4° C., while the myocardium was placed in a pre-chilled glass Petri dish and minced on ice using sharp scissors. All samples were homogenized in 500 μl of STM buffer at pH 7.4, containing 250 mM sucrose, 50 mM Tris-HCl, 5 mM MgCl2, 5 mM Na3VO4, 1% (v/v) protease and phosphatase inhibitor cocktails and homogenized for 1 min on ice using a tight-fitting Teflon pestle attached to a Potter S. homogenizer (Sartorius Stedium, Goettingen, Germany) set to 800 rpm. The homogenate was maintained on ice for 30 min, vortexed at maximum speed for 15 s and then centrifuged at 800×g for 15 min at 4° C. The pellet was labelled as P0 and kept on ice; the supernatant was labelled as S0. The pellet P0 (containing nuclei and debris) was resuspended in 500 μl STM buffer, vortexed at maximum speed for 15 s and then centrifuged at 500×g for 15 min at 4° C. Following the above step, the nuclear pellet was labelled as P1 and kept on ice, and the supernatant S1 (cell debris) was discarded. […] The protein content of each compartment was determined using the BCA protein assay^48. […]

PR55α = PR55α expression levels by Western blot in hiPsCMs; format: cell-based, human; settings: for decrease in PR55α protein levels: Dox
Source text: The hsa-miR-106b-5p sequence of nucleotides was obtained from www.MiRbase.org. Human miR-106b (accession No: MIMAT0000680) and nucleotide sequence of 5′-[…]-3′ are homologous between mice and man. In order to express or block the specific miR-106b function, synthetic pre-miR-106b or antimiR-106 oligonucleotides were transfected into hiPsCMs cells, respectively. Lipofectamine RNAiMAX transfection reagent (ThermoFisher) was used according to the manufacturer's instructions. […] Two day before transfection, hiPsCMs cells were seeded in 6-well plates with 2 ml of STEMdiff™ Cardiomyocyte Support Medium (STEMCELL™ Technologies) to a density of 60%. Stock transfection mixes were made according to manufacturer's instructions. Briefly, 9 μl of Lipofectamine reagent was diluted in 141 μl of Opti-MEM I Medium (Invitrogen) and incubated 5 min at RT. In another tube, pre-miRNA, anti-miRNA or the specific controls oligonucleotides were diluted with Opti-MEM to a final concentration of 50 nM. Both mixes were incubated together for 30 min at RT to allow complex formation between miRNA and lipids. To transfect cells, the STEMdiff™ Cardiomyocyte Support Medium was removed and replaced with 1.75 ml fresh Medium and 250 μl of the appropriate transfection mix. Cells were incubated at 37° C. for […], after which hiPsCMs were treated with […] Dox for 15 h. Transfection efficiency was tested in parallel using both hiPsCMs as well as a mouse cell line HL-1 (FIG. 7). […]
as §1, with “Membranes were developed using HRP conjugated secondary antibodies and Pierce ECL western blotting substrate (Thermo Fisher Scientific).” left out

HDAC4 = assay: Phosphorylated and total HDAC4 in cytosol and nucleus (subcellular fractionation, Western blot); format: cell-based, human; settings: hiPsCMs; for phosphorylation state of HDAC4 Ser246 in cytosol: Dox 15 h, preincubation 24 h before Dox; for total HDAC4 levels in nuclei fractions: Dox, pretreatment before Dox
Experimental: Briefly, fresh LV (˜30 mg) tissue or harvested untreated or treated cells (˜3×10^6 cells) were washed using cold DPBS along with 100-fold diluted protease and phosphatase inhibitors. Human cardiomyocytes were pelleted by centrifugation at 480×g for 10 min at 4° C., while the myocardium was placed in a pre-chilled glass Petri dish and minced on ice using sharp scissors. All samples were homogenized in 500 μl of STM buffer at pH 7.4, containing 250 mM sucrose, 50 mM Tris-HCl, 5 mM MgCl2, 5 mM Na3VO4, 1% (v/v) protease and phosphatase inhibitor cocktails and homogenized for 1 min on ice using a tight-fitting Teflon pestle attached to a Potter S. homogenizer (Sartorius Stedium, Goettingen, Germany) set to 800 rpm. The homogenate was maintained on ice for 30 min, vortexed at maximum speed for 15 s and then centrifuged at 800×g for 15 min at 4° C. The pellet was labelled as P0 and kept on ice; the supernatant was labelled as S0. The pellet P0 (containing nuclei and debris) was resuspended in 500 μl STM buffer, vortexed at maximum speed for 15 s and then centrifuged at 500×g for 15 min at 4° C. Following the above step, the nuclear pellet was labelled as P1 and kept on ice, and the supernatant S1 (cell debris) was discarded. To further increase the purity of the P1 fraction it was washed in 400 μl STM buffer, vortexed at maximum speed for 15 s and then centrifuged at 1000×g for 15 min at 4° C. The washed pellet was labelled as P2 (S2 was discarded) and resuspended in 100 μl NET buffer composed of 20 mM Hepes pH 7.9, 1.5 mM MgCl2, 0.5 M NaCl, 0.2 mM EDTA, 20% (v/v) glycerol, 1% (v/v) Triton-X-100 and protease and phosphatase inhibitors, using a pipette to triturate until homogeneity. Pellet P2 was vortexed at maximum speed for 15 s and incubated on ice for 30 min; the resulting fraction contained the nuclei, which were lysed by sonication (Soniprep 150, MSE, London, UK) at a high setting for 10-15 s with 30 s pauses whilst being kept on ice. The lysate was centrifuged at 9000×g for 30 min at 4° C., the resultant supernatant (S3) was the final “nuclear fraction”. […] The protein content of each compartment was determined using the BCA protein assay^48. […]
as §1, with “Membranes were developed using HRP conjugated secondary antibodies and Pierce ECL western blotting substrate (Thermo Fisher Scientific).” left out

YY1 = YY1 expression levels by Western blot in hiPsCMs; format: cell-based, human; settings: Dox
Experimental: as §1

PP2A = PP2A Immunoprecipitation Phosphatase Assay; format: cell-based, human; settings: hiPsCMs, Dox treatment
Experimental: To measure PP2A phosphatase activity, we used a PP2A Immunoprecipitation Phosphatase Assay Kit (Millipore Sigma, catalog number 17-313). In brief, cells were lysed in 20 mM imidazole HCl, 2 mM EDTA, 2 mM EGTA, pH 7.0 with 10 μg/mL each of aprotinin, leupeptin, pepstatin, 1 mM benzamidine, and 1 mM PMSF. Two milligrams of the lysates were then immunoprecipitated with 2 μg of anti-STRN4 antibody (Abcam, ab177155) and 40 μl of protein-A-agarose beads at 4° C. overnight. Beads were washed three times with lysis buffer followed by the Ser/Thr assay buffer. Phosphatase reactions were then performed in Ser/Thr assay buffer with a final concentration of 750 μM of MAP4K4 phosphopeptides: S771/S775 (A-A-S-pS-L-N-L-pS-N-G-E-T-E-S-V-K), S876 (L-T-A-N-E-T Q-pS-A-S-S-T-L-Q-K) or S1251 (V-F-F-A-pS-V-R-S) for 10 min at 30° C. To provide evidence that the immunoprecipitated phosphatase activity is PP2A, we treated parallel immunoprecipitates with 5 nM of okadaic acid (Cell Signaling, #5934). Dephosphorylation of the phosphopeptide was measured through malachite green phosphate detection at 650 nm.

hiPsCMs [1] = assay: Assay for cell viability (MTT); format: cell-based, human; settings: Dox 15 h
Experimental: After seeding 5×10^3 cells in each 96-well plate, they were incubated in 5% CO2 at 37° C. for 24 h. After cited treatment, MTT solution (1 mg/ml) was added to each well and an incubation was performed for 3 h at 37° C. Next, the medium containing MTT was removed and 100 μL of DMSO was added to each well and pipetted several times to form a completely uniform suspension. The solution was then shaken for 10 min at 37° C. until formazan crystals were completely dissolved. The obtained solution was added to a microtube and centrifuged in 1500 RPM for 5 min to eliminate any impurities. Absorbance of the samples was read at 570 nm and the background value at 690 nm was subtracted. The intrinsic absorbance value of doxorubicin was subtracted when necessary. The index of cell survival at each time point corresponds to the percentage with respect to control.

hiPsCMs [2] = assay: LDH levels in cell supernatant from hiPsCMs; format: cell-based, human; settings: Dox 15 h
HL-1 cell line = assay: FOG2 mRNA levels in HL-1 cell line; format: cell-based, mouse; settings: 5 μM Dox for 15 h
[3] = system: miR-106b target FOG2 in hiPsCMs; assay: FOG2 mRNA levels (efficiency of miR-106b inhibition) in hiPsCMs; format: cell-based, human; settings: preincubation 24 h, then Dox 15 h, vs AC
[4] = system: Caspase 3/7 activity in hiPsCMs; assay: Caspase-Glo 3/7 assay; format: cell-based, human; settings: 5 μM Dox 15 h
Experimental: Caspase assay was performed as per the manufacturer's instructions with the Caspase-Glo 3/7 kit (Promega). In this setting, hiPsCMs were treated with 5 μM Dox for 15 h. Next, hiPsCMs and caspase assay reagent were left at RT for 30 min. The next step was adding an equal amount of caspase assay reagent and further incubated for 30 min at RT. Luminescence was measured using a microplate reader CLARIOstar Plus (BMG Labtech).

Row | Compound | miR-106b levels in hiPsCMs (miR-106b; 3 h of treatment) [fold control] | miR-106b levels in hiPsCMs (miR-106b; 15 h, p<0.001) | miR-106b levels in the culture media of hiPsCMs (miR-106b; significant from 15 h) | sST2 expression levels (sST2) | HDAC4-YY1 interaction (HDAC4-YY1 interaction) | decrease in PR55α protein levels (PR55α; 6 h of treatment) [fold control] | decrease in PR55α protein levels (PR55α; 15 h, p<0.001) | phosphorylation state of HDAC4 Ser246 in cytosol (HDAC4) | total HDAC4 levels in nuclei fractions (HDAC4) | YY1 protein expression (YY1; 6 h of treatment) [fold control] | YY1 protein expression (YY1; 15 h, p<0.001) | PP2A activity (PP2A) | loss of Dox-induced cell viability (hiPsCMs [1]) | release of LDH (hiPsCMs [2]) | PR55α levels (PR55α; with or without Dox) | FOG2 mRNA levels (HL-1 cell line) | FOG2 mRNA levels [3] | caspase 3/7 activity (myocardial apoptosis) [4]
1 | COc1cccc2c1C(=O)c1c(O)c3c(c(O)c1C2=O)C[C@@](O)(C(=O)CO)C[C@@H]3O[C@H]1C[C@H](N)[C@H](O)[C@H](C)O1 [Dox, doxorubicin] | 2.3±0.03 | significantly higher | progressively increased | increase in sST2 expression levels | prevent HDAC4-YY1 interaction | 2.6±0.02 | significantly higher | significantly increases | significative decrease in total HDAC4 levels | 3.8±0.23 | significantly higher |  |  |  |  |  |  | 
2 | AM106: miRCURY LNA microRNA Inhibitor against miR-106b-5p, 5′-CACTGTCAGCACTTT-3′ (SEQ ID NO 3), sequence shown without LNA pattern (antisense CACUGUCAGCACUUU; LNA-modified inhibitor, LNA pattern not given here) |  |  |  | reverted this effect | favored these interaction |  |  | decreased phosphorylation state of HDAC4 | increased |  |  | prevented Dox-induced PP2A activity decrease | able to prevent | prevent the release of LDH | prevented Dox-induced PR55α degradation | increases FOG2 mRNA levels | prevent down-regulation of FOG2 mRNA levels | decrease in caspase 3/7 activity
